What was measured:
[1] = tested on: AHF patients with SBP of ≥160 mmHg; assay: Dyspnea assessment by 100 mm VAS, VMAC scale and PDA; assay type: in vivo, human
Description: Dyspnea was assessed by a 100 mm VAS, in which a score of 0 was “no dyspnea” and a score of 100 represented “worst possible dyspnea.” Dyspnea was evaluated immediately prior to study drug administration, and at 15, 30, 45, 60, 120, 360 and 720 minutes afterward. In addition, the Vasodilation in the Management of Acute Congestive Heart Failure (VMAC) scale, a relative 7 point Likert score, and the Provocative Dyspnea Assessment (PDA) (Pang et al, Eur Heart J2008, 29) were both performed in the seated and supine positions and recorded.

[2] = tested on: AHF patients with SBP of ≥160 mmHg; assay: Randomized open label 13-center trial: blood pressure control, clevidipine vs standard of care; assay type: in vivo, human
Description: (§1) A randomized open label 13-center trial enrolled AHF patients with SBP of ≥160 mmHg, sitting dyspnea score ≥50 on a 100 mm VAS, and a physician's clinical diagnosis of AHF with pulmonary congestion by chest auscultation.
(§2) If the target blood pressure range was not reached within 30 minutes, or not maintained thereafter, alternative antihypertensive agents were allowed per physician discretion, with or without continuation of the study drug.
(§3) Two populations were analyzed. The “safety” population included all patients receiving any study drug, and was used for all safety analyses.

[3] = tested on: AHF patients with SBP of ≥160 mmHg; assay: Safety analyses of the AHF trial (hypotension, adverse events, deaths)
Description: as §1, §2, §3
Historical ejection fraction data was recorded when available.

[4] = in vivo; cited from earlier work
[5] = AHF population, 30-minute target SBP range

O=[N+]([O-])OCC(CO[N+](=O)[O-])O[N+](=O)[O-] [nitroglycerin]
Speed of VAS improvement, SOC subsets ([1]; FIG. 2D, compared with clevidipine): neither nitroglycerin nor nicardipine improved VAS as quickly as clevidipine

CCCC(=O)OCOC(=O)C1=C(C)NC(C)=C(C(=O)OC)C1c1cccc(Cl)c1Cl (stereo not drawn) [clevidipine]
Target blood pressure range achieved, % of patients [2, 5]: 70.5%
Target blood pressure range achieved, patients/total [2, 5]: 31/44
AUC above the target blood pressure, median ([2]; in vivo): 327 mmHg×min/h
AUC below the target blood pressure, median ([2]; in vivo): 0 mmHg×min/h
AUC outside the target blood pressure, median ([2]; in vivo): 379 mmHg×min/h
Patients requiring additional antihypertensives ([2]; in vivo): 15.9%
Rate of being within, but not below, the target blood pressure range ([2]; in vivo): 45.5%
Median time to reach target blood pressure range ([2]; patients in which the target range was achieved): 15 min
Duration of SBP <90 mmHg ([3]; human, in vivo): 3.3 min
Patients who exceeded their lower target blood pressure range limit ([3]; human, in vivo): 15 patients
Patients with at least one related TEAE, % ([3]; human, in vivo): 9.8%
Proportion of time that SBP was <90 mmHg while on study drug ([3]; human, in vivo): 2.5%
SBP <90 mmHg occurred, % of patients ([3]; human, in vivo): 5.9%
SBP <90 mmHg occurred, patients ([3]; human, in vivo): 3 patients
Study drug related TEAE: Abdominal discomfort, % ([3]; human, in vivo): 2.0%
Study drug related TEAE: Abdominal pain, % ([3]; human, in vivo): 2.0%
Study drug related TEAE: Blurred vision, % ([3]; human, in vivo): 2.0%
Study drug related TEAE: Flushing, % ([3]; human, in vivo): 2.0%
Study drug related TEAE: Headache, % ([3]; human, in vivo): 2.0%
Study drug related TEAE: Myalgia, % ([3]; human, in vivo): 2.0%
Study drug related TEAE: Nausea, % ([3]; human, in vivo): 2.0%
Study drug related TEAE: Ventricular tachycardia, % ([3]; human, in vivo): 2.0%
Incidence of serious adverse events ([3]; human, in vivo, 30 days): 23.5%
Mean by which the lower target limit was exceeded ([3]; in vivo): 8.7 mmHg
Mean heart rate change from baseline to 30 minutes ([3]; in vivo): 2.6 bpm
Symptomatic hypotension, patients ([3]; in vivo): one
Patients expired within 30 days of treatment ([3]; none during study drug administration): 3 patients
Mean VAS decrease from baseline ([1]; at 45 minutes, 100 mm dyspnea VAS): 37.1 mm
Effect on dyspnea compared with nicardipine ([1]; in vivo): significantly greater than the effect of nicardipine on dyspnea
VAS dyspnea scores over time (treatment×time effect) ([1]; vs SOC): decreased more from baseline with clevidipine than SOC
VMAC and PDA scores ([1]; vs SOC): non-significant trends toward greater improvement with clevidipine than SOC
Half-life [4]: about 1 minute

— patent publication US10881645B2, “Methods for controlling blood pressure and reducing dyspnea in heart failure” (Chiesi Farmaceutici S.p.A., priority 2012, dated 2021)
